This note sets out measurements from ChEMBL document CHEMBL1201862, “PubChem BioAssay data set” (2004).

Among the test systems are CAKI-1; COLO 205; HCT-15; HOP-62; HT-29; Hs-578T; IGROV-1; M14; MDA-N; OVCAR-8; RXF 393; SF-268; SK-MEL-2; SK-MEL-5; SK-OV-3; TK-10; SR.
Experiment in all cases: NCI anticancer screen, dose series, 48 h

The structures appear in SMILES notation.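 These data come from cells grown in 96-well plates and exposed to compound for 48 hours at five concentrations. GI50 is the concentration that inhibits growth by half.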 The source made the active and inactive calls. Rule as the data show it: active = GI50 up to about 1.1 µM and inactive = higher. Some results are limits rather than exact numbers.

As to `O=C(Nc1cccc2ccccc12)c1ccccc1`, the GI50 in the assay with CAKI-1 was 99.1 µM (inactive); in the assay with COLO 205 it was 97.7 µM (inactive); with HCT-15, 98.2 µM; with HOP-62, 81.3 µM (inactive); with HT-29 it was 47.5 µM (inactive); with Hs-578T it was > 100 µM (inactive). Moreover, the GI50 in the assay on IGROV-1 was > 100 µM (inactive); with M14, > 100 µM (inactive); with MDA-N, 77.6 µM (inactive); with OVCAR-8, > 100 µM (inactive); in the assay on RXF 393, 26.7 µM (inactive); in the assay with SF-268, > 100 µM (inactive). The GI50 is 91.2 µM (inactive) with SK-MEL-2, 53.5 µM (inactive) with SK-MEL-5, > 100 µM (inactive) with SK-OV-3 and > 100 µM (inactive) in the assay on TK-10.
In the case of `Clc1c2nc3ccccc3c-2[nH]c2ccccc12`, the GI50 was 9.16 µM (inactive) with CAKI-1; 2.86 µM (inactive) with COLO 205; 14.4 µM in the assay on HCT-15; 47.1 µM (inactive) with HOP-62; 4.3 µM (inactive) in the assay with HT-29; 33.7 µM (inactive) with Hs-578T. Besides, the GI50 with IGROV-1 was 9.68 µM (inactive); with M14 it was 36.2 µM (inactive); in the assay on MDA-N it was 3.57 µM (inactive); with OVCAR-8, 29 µM (inactive); in the assay on SF-268 it was 64.3 µM (inactive); in the assay on SK-MEL-2 it was > 100 µM (inactive). For the same compound, the results for the GI50 in the assay with SK-MEL-5, in the assay on SR and in the assay with TK-10 were 3.95 µM (inactive), 4.37 µM (inactive) and 98.4 µM (inactive), respectively.
`COC(=O)c1c(C)c2c(c(C)c1O)OC(=O)c1c(C)cc(O)c(C=O)c1O2`: the GI50 was > 100 µM (inactive) in the assay with COLO 205; more than 100 µM in the assay on HCT-15; > 100 µM (inactive) with HOP-62; > 100 µM (inactive) in the assay with HT-29; 12.5 µM (inactive) with Hs-578T; 69.7 µM (inactive) in the assay with IGROV-1. Also, the GI50 with M14, in the assay with MDA-N, in the assay with OVCAR-8, in the assay on RXF 393, in the assay with SF-268 and in the assay on SK-MEL-5 was > 100 µM (inactive) each time. Moreover, the GI50 with SK-OV-3 was 20 µM (inactive); in the assay with SR, > 100 µM (inactive); in the assay on TK-10, > 100 µM (inactive).
As to `Cc1ccc(Cc2n[nH]c(=O)n2Nc2ccccc2)cc1`, the GI50 in the assay on CAKI-1 was > 100 µM (inactive); in the assay on COLO 205, > 100 µM (inactive); with HCT-15, more than 100 µM; with HOP-62 it was > 100 µM (inactive); with HT-29, > 100 µM (inactive); in the assay on Hs-578T it was > 100 µM (inactive). Moreover, the GI50 with IGROV-1, with MDA-N, with OVCAR-8, in the assay with SF-268, with SK-MEL-2 and with SK-MEL-5 was > 100 µM (inactive) each time. Also, the GI50 with SK-OV-3, in the assay on SR and with TK-10 was > 100 µM (inactive) each time.
Take `CC(=O)Oc1ccc2cc(Oc3ccccc3)c(=O)oc2c1`: the GI50 with CAKI-1 was > 100 µM (inactive); in the assay on HCT-15 it was 53.3 µM; with HOP-62 it was 89.1 µM (inactive); in the assay on HT-29, > 100 µM (inactive); with Hs-578T it was > 100 µM (inactive); in the assay with IGROV-1, > 100 µM (inactive). Moreover, the GI50 in the assay with M14 is > 100 µM (inactive); in the assay with MDA-N, > 100 µM (inactive); with OVCAR-8 it was 80.9 µM (inactive); with RXF 393, > 100 µM (inactive); in the assay with SF-268 it was > 100 µM (inactive); with SK-MEL-5, 50.4 µM (inactive). The results for the GI50 in the assay with SR and in the assay with TK-10 were > 100 µM (inactive) and 64.6 µM (inactive), respectively.
On to `COc1c(-c2ccc(O)c(O)c2)oc2c(O)c(O)cc(O)c2c1=O`, for which the GI50 with CAKI-1 was 64.6 µM (inactive); in the assay on COLO 205, > 100 µM (inactive); with HCT-15, 85.5 µM; in the assay with HOP-62, 26.7 µM (inactive); in the assay with HT-29, 20 µM (inactive); with Hs-578T it was 49.5 µM (inactive). The GI50 with IGROV-1 was 24.7 µM (inactive); in the assay with M14, > 10 µM (inactive); with MDA-N it was 61.5 µM (inactive); with OVCAR-8 it was > 100 µM (inactive); with SK-MEL-2, > 100 µM (inactive); with SK-MEL-5, 45.4 µM (inactive). For the same compound, the figures for the GI50 with SK-OV-3, with SR and with TK-10 were 85.9 µM (inactive), 22 µM (inactive) and > 100 µM (inactive), respectively.
Regarding `COC(=O)C1CCC(=O)N1C(c1cc(OC)c(OC)c(OC)c1)c1cc(OC)c(OC)c(OC)c1` (stereo not given), the GI50 in the assay with HCT-15 is more than 100 µM; with HOP-62, > 100 µM (inactive); with HT-29, > 100 µM (inactive); with Hs-578T, > 100 µM (inactive); in the assay with IGROV-1 it was 94.6 µM (inactive); in the assay on M14, > 100 µM (inactive). Besides, the GI50 with MDA-N, in the assay on OVCAR-8, in the assay on SF-268, in the assay on SK-MEL-2, with SK-OV-3 and in the assay with SR was > 100 µM (inactive) each time. Further, the GI50 in the assay on TK-10 is > 100 µM (inactive).
Turning to `O=C(O)CCC(NC(=O)c1ccc(Nc2nc3ccccc3nc2C(=O)O)cc1)C(=O)O` (stereo not given), the GI50 with CAKI-1, in the assay with COLO 205, in the assay on HOP-62, in the assay on HT-29, in the assay on Hs-578T and in the assay on IGROV-1 was > 100 µM (inactive) each time. In addition, the GI50 with M14, in the assay on MDA-N, in the assay on OVCAR-8, in the assay with SF-268, in the assay on SK-MEL-2 and in the assay with SK-MEL-5 was > 100 µM (inactive) each time. Further, the GI50 with SK-OV-3, in the assay with SR and with TK-10 was > 100 µM (inactive) in each case.
For the compound `CC(NC(=O)OCc1ccccc1)NC(=O)C(CC(=O)OC(C)(C)C)NC(=O)OC(C)(C)C` (stereo not given), the GI50 in the assay on CAKI-1 is > 100 µM (inactive); in the assay with COLO 205, > 100 µM (inactive); in the assay on HCT-15 it was more than 100 µM; with HOP-62 it was > 100 µM (inactive); in the assay on HT-29, > 100 µM (inactive); with Hs-578T, > 100 µM (inactive). The GI50 with IGROV-1 is > 100 µM (inactive); in the assay on M14 it was > 100 µM (inactive); in the assay on MDA-N it was > 100 µM (inactive); in the assay on OVCAR-8, > 100 µM (inactive); in the assay on RXF 393, > 100 µM (inactive); in the assay with SF-268 it was 98.4 µM (inactive). In addition, the GI50 with SK-MEL-2, in the assay on SK-MEL-5, in the assay with SK-OV-3 and with TK-10 was > 100 µM (inactive) throughout.
For the compound `CC(C)(Sc1cc(C(C)(C)C)c(O)c(C(C)(C)C)c1)Sc1cc(C(C)(C)C)c(O)c(C(C)(C)C)c1` [PROBUCOL], the GI50 with CAKI-1 was > 100 µM (inactive); with COLO 205, > 100 µM (inactive); in the assay on HCT-15, more than 100 µM; in the assay with HOP-62 it was > 100 µM (inactive); in the assay on HT-29, > 100 µM (inactive); with Hs-578T it was > 100 µM (inactive). Further, the GI50 in the assay with IGROV-1 was > 100 µM (inactive); in the assay on M14, > 100 µM (inactive); in the assay with MDA-N, > 100 µM (inactive); in the assay with OVCAR-8, > 100 µM (inactive); with RXF 393, 79.6 µM (inactive); with SF-268 it was 52.8 µM (inactive). Further, the GI50 in the assay on SK-MEL-2, in the assay with SK-MEL-5, in the assay on SK-OV-3 and in the assay with TK-10 was > 100 µM (inactive) in each case.
